For two compounds, LC50 results are on record in ChEMBL document CHEMBL2380199, “Ostreol A: a new cytotoxic compound isolated from the epiphytic dinoflagellate Ostreopsis cf. ovata from the coastal waters of Jeju Island, Korea” (Bioorg Med Chem Lett, 2013).

Values after ≈ are worked out from the molar mass of the structure shown.

This data set in a line: Toxicity in Artemia salina after 24 hrs. The conditions noted are these: in vivo, read-out: LD50. In kind it is organism-based.

On to `CC1=C(O)[C@@](O)([C@@H]2C[C@H]3OC(=O)[C@H](C)[C@@H]4CCC[C@@]5(CC[C@H](O5)[C@H](O)[C@@]5(C)CC(=O)[C@H](O5)[C@H]5C[C@]6(C)CC[C@](O5)(O6)[C@H]5CC[C@](C)(C[C@@H](C)/C=C(C)/C=C/[C@H]3O2)O5)O4)OCC1`, for which the LC50 at 24 h is 2.5 mg/L (≈ 2.92 µM). With `C=CCC/C=C/CCCC/C=C/[C@@H](O)[C@H](O)[C@@H]1O[C@@H]([C@H](O)[C@H](O)C(=C)CC[C@@H](O)[C@H]2C[C@@H](O)[C@@H](O)[C@H]([C@@H](O)[C@H](O)/C=C(C)/C=C/CC(O)CC(O)CNC(=O)C(O)C(O)C/C=C\C(O)C(O)/C(C)=C/CCCC(O)/C=C/CC(O)/C=C/CC(O)CN)O2)C[C@@H](O)[C@H]1O` (some centres not stated) the figure was 0.9 mg/L (≈ 0.685 µM).
